# Reference: patent US20250051762A1, “PLATFORM USING DNA-ENCODED SMALL MOLECULE LIBRARIES AND RNA SELECTION TO DESIGN SMALL MOLECULES THAT TARGET RNA” (University of Florida Research Foundation, Incorporated, priority 2021, published 2025)
# Experiments:
# Format in all cases: cell-based, human
# WT pri-miR-27a = assay: RT-qPCR of miR-27a biogenesis in MCF-10a cells transfected with WT pri-miR-27a; conditions: WT pri-miR-27a plasmid, 48 h
# Description: (§1) To gauge the specificity of 9 for pri-miR-27a, inhibition of biogenesis was first studied in a cellular model of healthy breast epithelium, MCF-10a, in which miR-27a expression is not detectable (Ct>31). MCF-10a cells were transfected with a plasmid encoding WT pri-miR-27a or mutant in which the two 5′GAG/3′CCC internal loops at and nearby the Drosha processing site were mutated to base pairs. In the absence of compound treatment, both primary miRNA transcripts were processed similarly, generating mature miR-27a, as determined by RT-qPCR.
# (§2) Cell lines. Compounds were tested in MDA-MB-231 TNBC cells (HTB-26, ATCC), LNCaP metastatic prostate cancer cells (gifted from Junli Luo lab), MCF-7 (HTB-22, ATCC) breast cancer cells, HeLa cervical adenocarcinoma cells (CCL-2, ATCC), and MCF-10a, a model of healthy breast epithelial cells (CRL-10317, ATCC).
# (§3) Cell culture and compound treatment. All cells were maintained at 37° C. with 5% CO2. […]
# (§4) Analysis of mRNA abundance: Each cell line was grown as a monolayer in 12- or 24-well plates and treated as described in “Cell culture and compound treatment”. […] Relative abundance of mature miRNAs was calculated by normalizing to RNU6, and relative abundance for pri-miRNAs and mRNAs was calculated by normalizing to 18S ribosomal RNA, using the AAC, method. […]
# mutant pri-miR-27a = assay: RT-qPCR of miR-27a biogenesis in MCF-10a cells transfected with mutant pri-miR-27a; conditions: mutant plasmid, 48 h
# Description: as §1, §2, §3, §4
# pri-miR-27a [1] = assay: RT-qPCR of pri- and mature miR-27a in MDA-MB-231 TNBC cells; conditions: MDA-MB-231, RT-qPCR
# Method: as §2
# Cell culture and compound treatment. All cells were maintained at 37° C. with 5% CO2. MDA-MB-231 and LNCaP cells were cultured in RPMI 1640 medium with L-glutamine & 25 mM HEPES (Corning) supplemented with 10% (v/v) fetal bovine serum (FBS; Sigma) and 1× (v/v) Antibiotic-Antimycotic solution (Corning). MCF-7 and HeLa cells were cultured in DMEM medium with 4.5 g/L glucose (Corning), supplemented with 10% FBS, 1× (v/v) Glutagro (Corning), and 1× (v/v) Antibiotic-Antimycotic solution. MCF10a cells were cultured in DMEM/F12 50/50 with L-glutamine & 15 mM HEPES (Corning), supplemented with 10% FBS, 20 ng/mL human epidermal growth factor (Pepro Tech Inc.), […] hydrocortisone (Pfaltz & Bauer), 100 ng/mL cholera toxin (Sigma-Aldrich), 10 μg/mL insulin (Sigma-Aldrich), and 1× (v/v) Antibiotic-Antimycotic solution.
# (§5) MCF-10a cells were transfected with plasmids to express pri-miR-27a and mutant pri-miR-27a in 12- or 24-well plates with Lipofectamine 2000 per the manufacturer's protocol. For treatment of compounds, stocks were diluted in growth medium and added to cells for 48 h. The miRCURY miR-27a LNA inhibitor (QIAGEN, Cat #339121) was used as a positive control by diluting in growth medium to a final concentration of 1 nM. The miRCURY LNA Negative Control (QIAGEN, Cat #YI00199007-DDA) was used as a negative control, which has also diluted in growth medium to a final concentration of 1 nM.
# Analysis of mRNA abundance: Each cell line was grown as a monolayer in 12- or 24-well plates and treated as described in “Cell culture and compound treatment”. After 48 h, the cells were lysed, and total RNA was harvested using a Zymo Quick RNA Miniprep Kit per the manufacturer's protocol. To measure the abundance of mature miRNAs, approximately 250 ng of total RNA was reverse transcribed using the High Flex Buffer provided in a miScript II RT Kit (Qiagen) per the manufacturer's protocol (10 μL total reaction volume). For pri-miRNAs and mRNA, approximately 300 ng of total RNA was reverse transcribed using a qScript cDNA synthesis kit (10 μL total reaction volume, Quanta BioSciences). For all types of RNAs, 2 μL of the RT reaction was used for qPCR using SYBR Green Master Mix and a QuantStudio™ 5 Real-Time PCR System. Relative abundance of mature miRNAs was calculated by normalizing to RNU6, and relative abundance for pri-miRNAs and mRNAs was calculated by normalizing to 18S ribosomal RNA, using the […]. (12)
# pri-miR-27a [2] = assay: RT-qPCR of pri- and mature miR-27a in MCF-7 cells; conditions: MCF-7, RT-qPCR
# Method: as §2
# (§6) Cell culture and compound treatment. All cells were maintained at 37° C. with 5% CO2. MDA-MB-231 and LNCaP cells were cultured in RPMI 1640 medium with L-glutamine & 25 mM HEPES (Corning) supplemented with 10% (v/v) fetal bovine serum (FBS; Sigma) and 1× (v/v) Antibiotic-Antimycotic solution (Corning). MCF-7 and HeLa cells were cultured in DMEM medium with 4.5 g/L glucose (Corning), supplemented with 10% FBS, 1× (v/v) Glutagro (Corning), and 1× (v/v) Antibiotic-Antimycotic solution. […]
# as §4
# pri-miR-27a [3] = assay: RT-qPCR of pri- and mature miR-27a in LNCaP cells
# Method: as §2, §6, §4
# pri-miR-27a [4] = assay: RT-qPCR of pri- and mature miR-27a in HeLa cells
# Method: as §2, §6, §4
# miR-24-2 = assay: RT-qPCR of mature miR-24-2 in MDA-MB-231 cells
# Method: as §2, §6, §4
# MDA-MB-231 cells = assay: miRNome profiling of all miRNAs detectable in MDA-MB-231 cells; conditions: 1 μM, FDR <1%, P<0.01
# ZBTB10 = assay: Western blot of ZBTB10 in MDA-MB-231 cells; conditions: relative to β-actin, 48 h
# [5] = test system: MCF-10a cells expressing mutant pri-miR-27a; assay: Migration of MCF-10a cells expressing mutant pri-miR-27a; conditions: forced expression of mutated pri-miR-27a
# Method: as §5
# Migration assay: MDA-MB-231 cells were grown in 60 mm diameter dishes and treated as described in “Cell culture and compound treatment” for 12 h. The medium was then removed and replaced with growth medium lacking FBS but with the same concentration of compound. After 12 h of serum starvation, the cells were detached and seeded to ThinCert™ (GBO) 24-well hanging inserts with 8 μm pores (˜5×10^4 cells per insert). Fresh growth medium with FBS was dispended in a 24-well plate (600 μL each well), and the ThinCert™ hanging inserts containing cells were then placed into the wells. After incubating for 24 h, the growth medium in the inserts was removed, and the remaining cells were washed twice with 1×DPBS. […] The remaining cells were then imaged by microscopy and counted for quantification (3 fields of view per sample).
smiles,measurement,setting,value
C#CCN(CC(N)=O)C(=O)C[C@H](Cc1c[nH]c2ccccc12)NC(=O)[C@@H]1C[C@H](NC(=O)Cn2c(=O)[nH]c3ccccc3c2=O)CN1 [Compound 9],mature miR-27a levels,WT pri-miR-27a,reduction
same,pri-miR-27a levels,WT pri-miR-27a,increase
same,inhibition of biogenesis of mutated pri-miR-27a,mutant pri-miR-27a,did not inhibit biogenesis
same,"inhibition of miR-27a (comparison of 5, 7, 9, 10)",pri-miR-27a [1],inhibited miR-27a to a greater extent than 5 and 7
same,pri-miR-27a levels,pri-miR-27a [1]; 48 h,increased
same,IC50,"pri-miR-27a [1]; 48 h, read-out: IC50 for reduction of mature miR-27a levels",~1 µM
same,dose with significant inhibition of miR-27a processing,pri-miR-27a [2],100 nM
same,dose with significant inhibition of miR-27a processing,pri-miR-27a [3],100 nM
same,dose with significant inhibition of miR-27a processing,pri-miR-27a [4],100 nM
same,effect on levels of mature miR-24-2,miR-24-2,no effect
same,only statistically significant effect across the miRNome,MDA-MB-231 cells,downregulation of miR-27a
same,ZBTB10 expression,ZBTB10,upregulation
same,rescue of migratory phenotype,[5],did not inhibit biogenesis of the mutated pri-miR-27a in MCF-10A (FIG. 3B) or rescue the migratory phenotype
